Source: the supplement of paper PMC10307832

Columns and labels:
Experiment in all cases: relative viability (nuclei count vs DMSO), 5 days (fraction); higher = more cells survive
[1] = compound: c1ccc2c(CCNc3ccc(Nc4ccncc4)cc3)c[nH]c2c1 [Serdemetan] + C[C@@H](Oc1cc(-c2cnn(C3CCNCC3)c2)cnc1N)c1c(Cl)ccc(F)c1Cl [Crizotinib] (partner 1 µM)
How it was run: (§1)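 For relative viability, nuclei counts in treated wells were divided by those in vehicle wells. Lung cancer cell lines had been pin-tool dosed in 1536-well plates the day after seeding and cultured for 5 days, then fixed and stained in one step (final 0.05% Triton X-100, 1% formaldehyde, 1 ug/ml Hoechst) and imaged at 4×. Doses were one drug alone or a fixed anchor-drug dose plus five library-drug doses (not always all listed) in √10 steps, and values are duplicate-plate medians.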

[2] = compound: C1CC(C2=C(C1)C3=C(N2)C=CC(=C3)Cl)C(=O)N [Selisistat] + O=C(c1cc(Cc2n[nH]c(=O)c3ccccc23)ccc1F)N1CCN(C(=O)C2CC2)CC1 [Olaparib] (partner 8 µM)
How it was run: as §1

[3] = compound: c1ccc2c(CCNc3ccc(Nc4ccncc4)cc3)c[nH]c2c1 [Serdemetan] + COc1cc2c(Oc3ccc(NC(=O)C4(C(=O)Nc5ccc(F)cc5)CC4)cc3F)ccnc2cc1OCCCN1CCOCC1 [Foretinib] (partner 0.25 µM)
How it was run: as §1

[4] = compound: C1CC(C2=C(C1)C3=C(N2)C=CC(=C3)Cl)C(=O)N [Selisistat] + NC(=O)Nc1cc(-c2cccc(F)c2)sc1C(=O)N[C@H]1CCCNC1 [AZD7762] (partner 0.2 µM)
How it was run: as §1

| Cell Line | relative viability ([1]; first compound 0.04 µM) | relative viability ([1]; first compound 0.1265 µM) | relative viability ([1]; first compound 0.4 µM) | relative viability ([1]; first compound 1.265 µM) | relative viability ([1]; first compound 4 µM) | relative viability ([2]; first compound 0.4 µM) | relative viability ([2]; first compound 1.265 µM) | relative viability ([2]; first compound 4 µM) | relative viability ([2]; first compound 12.65 µM) | relative viability ([2]; first compound 40 µM) | relative viability ([3]; first compound 0.04 µM) | relative viability ([3]; first compound 0.1265 µM) | relative viability ([3]; first compound 0.4 µM) | relative viability ([3]; first compound 1.265 µM) | relative viability ([3]; first compound 4 µM) | relative viability ([4]; first compound 0.4 µM) | relative viability ([4]; first compound 1.265 µM) | relative viability ([4]; first compound 4 µM) | relative viability ([4]; first compound 12.65 µM) | relative viability ([4]; first compound 40 µM) |
| --- | --- | --- | --- | --- | --- | --- | --- | --- | --- | --- | --- | --- | --- | --- | --- | --- | --- | --- | --- | --- |
| LC-2-ad | 0.455 | 0.429 | 0.39 | 0.394 | 0.407 | 0.801 | 0.69 | 0.717 | 0.633 | 0.71 | 0.883 | 0.943 | 0.831 | 0.748 | 0.86 | 0.827 | 0.814 | 0.68 | 0.775 | 0.9 |
| LCLC-97TM1 | 0.361 | 0.314 | 0.351 | 0.233 | 0.189 | 0.488 | 0.304 |  | 0.285 | 0.366 | 0.935 | 0.899 | 0.918 |  | 0.767 | 0.187 | 0.208 |  | 0.342 | 0.183 |
| LCLC-103H | 0.977 | 1.12 | 0.979 | 0.94 | 0.995 | 0.814 | 0.798 | 0.78 | 0.724 | 0.833 | 0.697 | 0.81 | 0.647 | 0.556 | 0.569 | 0.807 | 0.744 | 0.853 | 0.751 | 0.749 |
| LK-2 | 0.217 | 0.265 | 0.205 | 0.204 | 0.252 | 0.721 | 0.652 | 0.675 | 0.588 | 0.782 | 1.29 | 1.13 | 1.47 | 1.16 | 0.41 | 0.434 | 0.265 | 0.323 | 0.296 | 0.434 |
| LOU-NH91 | 0.733 | 0.738 |  | 0.719 | 0.699 | 0.936 | 0.867 | 0.914 | 0.895 | 0.899 | 0.928 | 0.927 | 0.63 | 0.952 | 0.873 | 0.751 | 0.755 | 0.775 | 0.723 | 0.841 |
| LU99A | 0.521 | 0.529 | 0.317 | 0.187 | 0.17 | 0.24 | 0.248 | 0.307 | 0.255 | 0.251 | 0.881 | 0.702 | 0.487 | 0.245 | 0.223 | 0.372 | 0.256 | 0.392 | 0.436 | 0.338 |
| LXF-289 | 0.754 | 0.776 | 0.719 | 0.637 | 0.689 | 1.1 | 1.03 | 0.96 | 0.966 | 1.04 | 1.02 | 1.01 | 0.951 | 0.62 | 0.793 | 1.12 | 1.14 | 0.936 | 1.03 | 1.1 |
| NCI-H23 | 0.519 | 0.421 | 0.549 | 0.513 | 0.321 | 0.234 | 0.353 |  | 0.305 | 0.31 | 0.891 | 1.01 | 0.831 | 0.791 | 0.706 | 0.297 | 0.193 |  | 0.31 | 0.169 |
| NCI-H322M | 0.917 | 0.93 | 0.859 | 0.917 | 0.585 | 0.857 | 0.83 |  | 0.845 | 0.868 | 0.946 | 0.887 | 0.909 | 0.963 | 0.481 | 0.579 | 0.657 |  | 0.572 | 0.675 |
| NCI-H358 | 0.599 | 0.566 | 0.618 | 0.593 | 0.292 | 0.724 | 0.593 | 0.696 | 0.553 | 0.662 | 0.641 | 0.773 | 0.732 | 0.549 | 0.477 | 0.532 | 0.589 |  | 0.518 | 0.639 |
| NCI-H441 | 0.721 | 0.713 | 0.649 | 0.487 | 0.596 | 0.49 | 0.51 | 0.582 | 0.504 | 0.534 | 1.05 | 0.918 | 0.981 | 0.99 | 0.872 | 1.19 | 1.06 | 1.29 | 0.969 | 1.32 |
| NCI-H460 | 0.842 | 0.866 | 0.836 | 0.154 | 0.075 | 0.452 | 0.404 |  | 0.319 | 0.403 | 0.895 | 1.01 | 0.883 | 0.597 | 0.104 | 0.617 | 0.488 |  | 0.571 | 0.697 |
| NCI-H596 | 1 | 0.862 | 0.914 | 0.569 | 0.51 | 0.802 | 0.715 | 0.643 | 0.619 | 0.609 | 0.87 | 0.703 | 0.684 | 0.355 | 0.402 | 1.14 | 1.01 | 0.887 | 1.05 | 1.06 |
| NCI-H647 | 0.978 | 1.16 | 0.983 | 0.583 | 0.637 | 0.622 | 0.577 | 0.736 | 0.48 | 0.591 | 1.2 | 1.15 | 1.1 | 1.17 | 0.801 | 0.465 | 0.433 | 0.345 | 0.432 | 0.553 |
| NCI-H1792 | 0.947 | 0.926 | 0.867 | 0.939 | 0.603 | 0.47 | 0.403 |  | 0.479 | 0.442 |  |  |  |  |  | 0.654 | 0.577 |  | 0.512 | 0.713 |
| NCI-H1793 |  |  |  |  |  | 1.01 | 0.935 |  | 0.812 | 0.912 | 0.663 | 0.716 | 0.446 | 0.363 | 0.245 | 0.477 | 0.461 |  | 0.53 | 0.73 |
| NCI-H2342 |  |  |  |  |  | 0.4 | 0.397 | 0.468 | 0.475 | 0.461 | 1.22 | 1 | 0.882 | 0.504 | 0.592 | 0.494 | 0.483 | 0.41 | 0.611 | 0.505 |
| SW 900 |  |  |  |  |  | 0.905 | 0.914 | 0.941 | 0.833 | 0.862 | 0.79 | 0.552 | 0.928 | 0.687 | 0.821 | 0.533 | 0.529 | 0.681 | 0.601 | 0.584 |
